From US7531555B2, “Compositions and methods for selective inhibition of nicotine acetylcholine receptors” (University of Florida Research Foundation, Inc., priority 2003, dated 2009)
Like-named read-outs stand apart in the source and are kept apart here.

What was measured:
Rat α3β2β3 = target: T1, Rat α3β2β3 (Rattus norvegicus, UniProt P04757+P12390+P12391); test: Voltage clamp of Xenopus oocytes expressing α3β2β3 nAChR; assay type: cell-based
T1 construct: expressed in transfected cells; host or cells: Xenopus laevis oocytes injected with subunit cRNAs; clones from Dr. Jim Boulter (UCLA)
Procedure: (§1) Mature (>9 cm) female Xenopus laevis African frogs (NASCO, Ft. Atkinson, Wis.) were used as a source of oocytes. Prior to surgery, frogs were anesthetized by placing the animal in a 1.5 g/l solution of MS222 (3-aminobenzoic acid ethyl ester) for 30 minutes. Oocytes were removed from an incision made in the abdomen.
(§2) In order to remove the follicular cell layer, harvested oocytes were treated with 1.25 mg/ml collagenase from Worthington Biochemical Corporation (Freehold, N.J.) for 2 hours at room temperature in calcium-free Barth's solution (88 mM NaCl, 10 mM HEPES pH 7.6, 0.33 mM MgSO4, 0.1 mg/ml gentamicin sulfate). Subsequently, stage 5 oocytes were isolated and injected with 50 nl (5-20 ng) each of the appropriate subunit cRNAs. Recordings were made 2 to 15 days after injection.
Rat neuronal nAChR clones and mouse muscle nAChR cDNA clones were used. The wild-type clones were obtained from Dr. Jim Boulter (UCLA). The rat α6/3 (Dowell et al. J Neurosci, 2003, 23:8445-8452) clone was obtained from Michael McIntosh (University of Utah) and expressed in Xenopus oocytes in combinations with rat β2 and β3. […] The TM2 domain is understood to line the pore of the channel, with alpha helix structure. The 7′ position may actually be directed away from the actual pore lining, but this residue is highly conserved in all of the nAChR. It is valine in all of them except α9 (isoleucine) and β1, where it is alanine. The TM2 mutation in the α6/3 chimera was corrected by using QuickChange (Stratagene) according to their protocols. The corrected α6/3 chimera sequence was confirmed by restriction diagnostics and by automated fluorescent sequencing (University of Florida core facility). The corrected clone was expressed as above in Xenopus oocytes with β2 and β3 and compared to the wild-type α3 co-expressed with β2 and β3.
(§3) After linearization and purification of cloned cDNAs, RNA transcripts were prepared in vitro using the appropriate mMessage mMachine kit from Ambion Inc. (Austin, Tex.).
(§4) Electrophysiology. The majority of experiments were conducted using OpusXpress 6000A (Axon Instruments, Union City Calif.). OpusXpress is an integrated system that provides automated impalement and voltage clamp of up to eight oocytes in parallel. Cells were automatically perfused with bath solution, and agonist solutions were delivered from a 96-well plate. Both the voltage and current electrodes were filled with 3 M KCl. The agonist solutions were applied via disposable tips, which eliminated any possibility of cross-contamination. Drug applications alternated between ACh controls and experimental applications. Flow rates were set at 2 ml/min for experiments with α7 receptors and 4 ml/min for other subtypes. Cells were voltage-clamped at a holding potential of −60 mV. Data were collected at 50 Hz and filtered at 20 Hz. Agonist applications were 12 seconds in duration followed by 181-second washout periods for α7 receptors and 8 seconds with 241-second wash periods for other subtypes. For some experiments, particularly under conditions where residual inhibition precluded making repeated measurements from single cells (see below), manual oocyte recordings were made as previously described (Papke and Papke Br J of Pharmacol, 2002, 137:49-61). In brief, Warner Instruments (Hamden, Conn.) OC-725C oocyte amplifiers were used, and data were acquired with a minidigi or digidata 1200A with pClamp9 software (Axon Instruments). Sampling rates were between 10 and 20 Hz and the data were filtered at 6 Hz. […]

Human α3β2α5 = target: T2, Human α3β2α5 (Homo sapiens, UniProt P17787+P30532+P32297); test: Voltage clamp of Xenopus oocytes expressing human α3β2α5 nAChR; assay type: cell-based
T2 construct: expressed in transfected cells; host or cells: Xenopus laevis oocytes injected with subunit cRNAs
Procedure: as §1, §2, §3
as §4, with “137:49-61).” for “137:49-61). In brief, Warner Instruments (Hamden, Conn.) OC-725C oocyte amplifiers were used, and data were acquired with a minidigi or digidata 1200A with pClamp9 software (Axon Instruments). Sampling rates were between 10 and 20 Hz and the data were filtered at 6 Hz.”
Experimental protocols and data analysis. […] In other experiments (Papke et al. J. Neurochem., 2000, 75:204-216; Papke and Papke Br J of Pharmacol, 2002, 137:49-61) these concentrations were determined to be the EC74, EC15, EC22, EC17, EC40, EC70, EC55, EC70 and EC100, respectively. […]
Responses to experimental drug applications were calculated relative to the preceding ACh control responses in order to normalize the data, compensating for the varying levels of channel expression among the oocytes. […]

[1] = inhibition still present after 5-minute wash, read-out: IC50 (recovery)

T1 sequence (P04757 26-499): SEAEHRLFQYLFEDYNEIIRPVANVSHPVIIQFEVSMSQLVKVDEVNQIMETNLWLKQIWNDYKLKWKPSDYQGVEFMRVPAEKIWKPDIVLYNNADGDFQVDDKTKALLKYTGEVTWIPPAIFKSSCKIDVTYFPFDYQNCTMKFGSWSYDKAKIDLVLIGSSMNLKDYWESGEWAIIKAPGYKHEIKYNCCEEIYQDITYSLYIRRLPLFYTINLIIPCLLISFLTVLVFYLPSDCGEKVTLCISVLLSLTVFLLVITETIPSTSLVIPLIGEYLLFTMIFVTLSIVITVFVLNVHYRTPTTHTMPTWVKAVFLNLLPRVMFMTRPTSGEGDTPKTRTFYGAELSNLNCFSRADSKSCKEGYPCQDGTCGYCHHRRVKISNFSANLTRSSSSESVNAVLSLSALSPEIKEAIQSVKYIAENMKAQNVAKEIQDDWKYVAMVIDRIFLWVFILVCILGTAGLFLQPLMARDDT
T1 sequence (P12390 25-500): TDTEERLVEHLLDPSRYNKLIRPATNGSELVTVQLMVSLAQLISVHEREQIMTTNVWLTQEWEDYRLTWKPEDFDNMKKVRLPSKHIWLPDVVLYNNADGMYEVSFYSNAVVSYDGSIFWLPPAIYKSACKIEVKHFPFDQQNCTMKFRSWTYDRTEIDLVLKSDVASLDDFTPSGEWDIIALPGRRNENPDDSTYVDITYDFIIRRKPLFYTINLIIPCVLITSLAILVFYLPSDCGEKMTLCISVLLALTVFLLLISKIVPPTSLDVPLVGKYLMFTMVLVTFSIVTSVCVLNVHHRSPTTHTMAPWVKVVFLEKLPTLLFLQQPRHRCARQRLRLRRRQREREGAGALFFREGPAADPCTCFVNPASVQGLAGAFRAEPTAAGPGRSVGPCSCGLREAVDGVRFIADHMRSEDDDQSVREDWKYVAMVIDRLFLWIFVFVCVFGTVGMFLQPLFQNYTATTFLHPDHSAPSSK
T1 sequence (P12391 31-464): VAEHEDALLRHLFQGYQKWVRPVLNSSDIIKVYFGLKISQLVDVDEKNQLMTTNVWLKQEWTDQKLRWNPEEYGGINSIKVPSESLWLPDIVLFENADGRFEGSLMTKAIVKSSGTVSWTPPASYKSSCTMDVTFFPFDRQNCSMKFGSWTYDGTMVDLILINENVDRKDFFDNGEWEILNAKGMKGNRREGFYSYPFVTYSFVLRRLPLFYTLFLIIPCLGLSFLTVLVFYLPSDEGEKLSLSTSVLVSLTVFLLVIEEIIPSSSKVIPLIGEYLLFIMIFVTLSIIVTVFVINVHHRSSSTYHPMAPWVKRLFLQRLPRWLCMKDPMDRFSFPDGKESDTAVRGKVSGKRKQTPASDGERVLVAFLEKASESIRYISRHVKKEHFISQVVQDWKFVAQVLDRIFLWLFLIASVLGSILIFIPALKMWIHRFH
T2 sequence (P32297 32-505): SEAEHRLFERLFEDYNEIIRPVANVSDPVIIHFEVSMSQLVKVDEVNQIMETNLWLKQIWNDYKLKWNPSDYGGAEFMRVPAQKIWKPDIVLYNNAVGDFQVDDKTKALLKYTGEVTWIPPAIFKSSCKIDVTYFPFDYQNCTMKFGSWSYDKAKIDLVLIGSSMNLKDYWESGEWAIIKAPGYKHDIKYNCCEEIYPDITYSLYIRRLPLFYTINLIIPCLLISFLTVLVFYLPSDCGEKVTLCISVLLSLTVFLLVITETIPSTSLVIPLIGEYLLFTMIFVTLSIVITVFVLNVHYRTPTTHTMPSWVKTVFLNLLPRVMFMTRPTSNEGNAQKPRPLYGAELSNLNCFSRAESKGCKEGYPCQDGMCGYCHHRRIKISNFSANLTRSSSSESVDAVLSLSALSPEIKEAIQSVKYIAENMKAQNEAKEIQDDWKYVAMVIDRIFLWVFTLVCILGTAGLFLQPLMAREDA
T2 sequence (P17787 26-502): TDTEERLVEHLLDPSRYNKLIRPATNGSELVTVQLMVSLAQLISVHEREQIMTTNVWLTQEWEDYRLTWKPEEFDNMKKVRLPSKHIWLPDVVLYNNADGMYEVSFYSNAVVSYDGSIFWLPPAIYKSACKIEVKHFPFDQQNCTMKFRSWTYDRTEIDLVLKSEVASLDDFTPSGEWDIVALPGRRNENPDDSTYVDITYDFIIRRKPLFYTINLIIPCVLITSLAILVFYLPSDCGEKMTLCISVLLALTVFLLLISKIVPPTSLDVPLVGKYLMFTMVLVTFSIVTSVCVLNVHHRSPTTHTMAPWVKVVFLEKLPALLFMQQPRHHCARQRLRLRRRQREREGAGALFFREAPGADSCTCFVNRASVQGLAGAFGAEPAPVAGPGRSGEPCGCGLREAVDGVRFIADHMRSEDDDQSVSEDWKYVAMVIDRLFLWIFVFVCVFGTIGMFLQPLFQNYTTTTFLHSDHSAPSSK
T2 sequence (P30532 23-468): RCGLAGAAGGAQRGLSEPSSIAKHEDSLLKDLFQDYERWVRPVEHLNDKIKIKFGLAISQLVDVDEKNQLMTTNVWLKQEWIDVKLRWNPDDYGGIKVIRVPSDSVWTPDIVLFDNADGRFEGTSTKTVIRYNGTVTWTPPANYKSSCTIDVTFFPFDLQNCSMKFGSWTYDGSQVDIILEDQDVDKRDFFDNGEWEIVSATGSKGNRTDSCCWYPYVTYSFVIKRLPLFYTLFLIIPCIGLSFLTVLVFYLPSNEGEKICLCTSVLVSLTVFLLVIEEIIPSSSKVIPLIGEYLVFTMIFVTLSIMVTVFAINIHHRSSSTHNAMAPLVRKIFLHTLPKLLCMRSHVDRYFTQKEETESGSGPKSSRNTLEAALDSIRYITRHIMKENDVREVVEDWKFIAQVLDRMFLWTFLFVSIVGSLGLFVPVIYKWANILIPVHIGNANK

## CCCCCCC(=O)OC1CC(C)(C)NC(C)(C)C1 [TMPH, 2,2,6,6-tetramethylpiperidin-4-yl heptanoate]
Rat α3β2β3; decrease in net charge, 100 μM ACh co-applied with TMPH, read-out: IC50 (area)
  IC50: 2700 ± 600 nM
Rat α3β2β3; decrease in peak current amplitude, 100 μM ACh co-applied with TMPH, read-out: IC50 (peak)
  IC50: 120000 ± 80000 nM
Rat α3β2β3; [1]
  IC50: 4300 ± 1500 nM
Rat α3β2β3; ratio
  IC50 net charge/IC50 peak: 0.025
  IC50 recovery/IC50 net charge: 1.6
Human α3β2α5; decrease in net charge, 1 μM ACh co-applied with TMPH, read-out: IC50 (area)
  IC50: 430 ± 180 nM
Human α3β2α5; decrease in peak current amplitude, 1 μM ACh co-applied with TMPH, read-out: IC50 (peak)
  IC50: 1100 nM
Human α3β2α5; [1]
  IC50: 750 ± 200 nM
Human α3β2α5; ratio
  IC50 recovery/IC50 net charge: 1.7
